Measurements: patent US10987346B2, “Iloperidone for the treatment of schizophrenia” (Vanda Pharmaceuticals, Inc., priority 2015, dated 2021)

Experiments:
[1] = test system: patients with schizophrenia; experiment: Randomized withdrawal relapse-prevention study (NCT01291511): safety assessments; assay type: in vivo, human; conditions: for Patients with at least 1 TEAE: Full Analysis Population; for Primary Reason for Discontinuation: Abnormal Laboratory Value(s) / Primary Reason for Discontinuation: Abnormal Test Procedure Result(s) / Primary Reason for Discontinuation: Adverse Event(s) / Primary Reason for Discontinuation: Death: interim analysis population, % of discontinued
Source text: Safety assessments included collection of adverse events (AEs), clinical laboratory evaluations, 12-lead electrocardiograms (ECGs), body weight, vital signs, Columbia Suicide Severity Rating Scale (C-SSRS), and movement disorder rating scales (Barnes Akathisia Scale [BAS], Abnormal Involuntary Movement Scale [AIMS], and Simpson Angus Scale [SAS]).
The safety population was defined for each study phase (Titration and Stabilization or Double-Blind Relapse Prevention). For each phase, the safety population included all patients who received at least 1 dose of study medication during the corresponding phase. Descriptive statistics by study phase for each of the safety assessments were calculated.

[2] = test system: patients with schizophrenia; experiment: Randomized withdrawal relapse-prevention study (NCT01291511): efficacy assessments; assay type: in vivo, human; conditions: for Avg Time to Relapse or Impending Relapse: full analysis population; for Hazard Ratio (95% CI): favoring iloperidone over placebo
Protocol: Study subjects were adults with schizophrenia who were first treated with open-label iloperidone 12 mg/day given as 6 mg BID and then stabilized for a further 14-24 weeks with a flexible-dose iloperidone regimen as per investigator judgment ranging between 8-24 mg/day daily dose (given BID). Subjects who remained clinically stable for at least 12 weeks entered the relapse prevention phase and were randomized 1:1 to either continue on the same flexible dose regimen of iloperidone or to withdraw from iloperidone to matched placebo in a double-blinded fashion. Subjects were followed for up to 26 weeks and were withdrawn upon showing signs of relapse or impending relapse. A pre-defined unblinded interim analysis (IA) was conducted utilizing a group sequential testing procedure with an O'Brien-Fleming stopping boundary after 68 relapse or impending relapse events were observed. The primary outcome was time-to-relapse or impending relapse with event criteria defined in the protocol prior to first subject enrollment.
A randomized, double-blind, placebo-controlled, parallel-group study (ClinicalTrials.gov identifier NCT01291511) was performed at 27 centers in the United States, 15 in India and 24 in Ukraine.
The study consisted of five phases, the first four of which are shown in FIG. 1: screening phase, open-label titration phase, open-label stabilization phase, double-blind randomized withdrawal phase, and open-label extension phase (not shown).
In the Open-Label Titration Phase, patients received iloperidone 1, 2, 4, 6, 6, 6, 6 mg twice daily on Days 1 through 7, respectively. All previous antipsychotic treatments were discontinued prior to, or within 4 days, after the first day of iloperidone treatment. If the Investigator felt that it was necessary to titrate down the previous antipsychotic medication, the dose reduction was to be done within the first 4 days initiating iloperidone treatment (i.e., previous medication fully discontinued by Day 4).
In the Open-Label Stabilization Phase, patients received flexible doses of iloperidone 4 to 12 mg twice daily (8 to 24 mg/day). Patients needed to be clinically stable for a minimum of 12 weeks prior to randomization.
In the Double-Blind Randomized Withdrawal Phase, patients were randomized to receive iloperidone or placebo. Patients randomized to iloperidone initially took the dose level being received during the last 4 weeks of the Stabilization Phase and then treated with flexible doses of iloperidone 4 to 12 mg twice daily (8 to 24 mg/day).
Patients needed to be clinically stable throughout the last 12 weeks of the Stabilization Phase to be eligible for randomization. “Clinically stable” adult outpatients were defined as: meeting DSM-IV criteria for schizophrenia, and remaining stable following 12 weeks of open-label treatment with flexible doses of iloperidone, being on an established dose of iloperidone that remained unchanged due to efficacy during the 4 weeks prior to randomization; PANSS total score ≤70 and CGI-S score ≤4; Score of ≤4 on each of the following individual PANSS items: P1 (delusion), P2 (conceptual disorganization), P3 (hallucinatory behavior), P6 (suspiciousness/persecution), P7 (hostility), or G8 (uncooperativeness); and no hospitalization or increase in level of care to treat exacerbations.
The primary efficacy endpoint was time to relapse or impending relapse. Relapse or impending relapse during the double-blind relapse prevention phase was defined as any of the following: hospitalization (voluntary or involuntary) due to worsening of schizophrenia; an increase (worsening) of the PANSS total score of ≥30% from randomization, confirmed at a second visit conducted with 1 to 7 days later; patient had clinically significant suicidal, homicidal, or aggressive behavior; CGI-I score of ≥6 (much worse) or 7 (very much worse) after randomization; or an increase in iloperidone dose or in need of additional antipsychotic treatment. […]

[3] = Double-Blind Relapse Prevention Phase, N = 151
[4] = Relapse Prevention Phase, end of the study
[5] = Titration and Stabilization Phase
[6] = Titration/Stabilization Phase, N = 629
[7] = end of Titration and Stabilization Phase

For `COc1cc(C(C)=O)ccc1OCCCN1CCC(c2noc3cc(F)ccc23)CC1` [iloperidone], the “TEAE incidence: Dizziness” value [1, 3] was 4 (2.6) n (%), the “TEAE incidence: Dry Mouth” value [1, 3] was 0 n (%) and the “TEAE incidence: Headache” value [1, 3] was 3 (2.0) n (%). For the same compound, the “TEAE incidence: Insomnia” value [1, 3] was 3 (2.0) n (%), the “TEAE incidence: Nausea” value [1, 3] was 2 (1.3) n (%) and the “TEAE incidence: Schizophrenia” value [1, 3] was 3 (2.0) n (%). The “TEAE incidence: Somnolence” value [1, 3] was 2 (1.3) n (%), the “TEAE incidence: Weight increased” value [1, 3] was 2 (1.3) n (%) and the “Patients with at least 1 TEAE” value [1, 3] was 60 (39.7) n (%). For the same compound, the “changes in AIMS scores” value ([1]; Relapse Prevention Phase) was “No clinically meaningful changes”, the “mean change from baseline in QTcF” value ([1]; Relapse Prevention Phase) was 4.9 ms and the “most common SAE: schizophrenia” value ([1]; Relapse Prevention Phase) was 1.3%. The “patients discontinued due to TEAEs” value ([1]; Relapse Prevention Phase) was 6%, the “patients reporting akathisia as TEAE” value ([1]; Relapse Prevention Phase) was 1% and the “patients reporting extrapyramidal disorder as TEAE” value ([1]; Relapse Prevention Phase) was 1%. The “patients who experienced a SAE” value ([1]; Relapse Prevention Phase) was 4%, the “patients who experienced a TEAE” value ([1]; Relapse Prevention Phase) was 40% and the “patients in whom akathisia was absent (BAS)” value ([1]; Relapse Prevention Phase, at completion) was 95%. For the same compound, the “mean change from baseline in weight” value [1, 4] was 0.02 kg, the “patients with ≥7% increase in weight from baseline” value [1, 4] was 38% and the “waist circumference versus placebo” value [1, 4] was “no notable differences”. For the same compound, the “Primary Reason for Discontinuation: Abnormal Laboratory Value(s)” value ([1]; Relapse Prevention Phase) was 3 (13) n (%), the “Primary Reason for Discontinuation: Abnormal Test Procedure Result(s)” value ([1]; Relapse Prevention Phase) was 1 (4) n (%) and the “Primary Reason for Discontinuation: Adverse Event(s)” value ([1]; Relapse Prevention Phase) was 3 (13) n (%). For the same compound, the “Primary Reason for Discontinuation: Death” value ([1]; Relapse Prevention Phase) was 1 (4) n (%), the “changes in Abnormal Involuntary Movement Scale (AIMS) scores” value [1, 5] was “No clinically meaningful changes” and the “discontinuation due to TEAE: QT prolongation” value [1, 5] was 1.1%. The “discontinuation due to TEAE: dizziness” value [1, 5] was 1.4%, the “discontinuation due to TEAE: schizophrenia” value [1, 5] was 1.9% and the “mean change from baseline in QTcF” value [1, 5] was 6.4 ms. For the same compound, the “most common SAE: schizophrenia” value [1, 5] was 1.4%, the “patients discontinued due to TEAEs” value [1, 5] was 15% and the “patients reporting akathisia as TEAE” value [1, 5] was 4%. The “patients reporting extrapyramidal disorder as TEAE” value [1, 5] was 3%, the “patients who experienced a SAE” value [1, 5] was 4% and the “patients who experienced a Treatment-Emergent Adverse Event (TEAE)” value [1, 5] was 69%. For the same compound, the “patients who died while receiving iloperidone” value ([1]; Titration and Stabilization Phase, one patient, alcohol poisoning) was 0.2%, the “TEAE incidence: Dizziness” value [1, 6] was 73 (11.6) n (%) and the “TEAE incidence: Dry Mouth” value [1, 6] was 43 (6.8) n (%). The “TEAE incidence: Headache” value [1, 6] was 40 (6.4) n (%), the “TEAE incidence: Insomnia” value [1, 6] was 35 (5.6) n (%) and the “TEAE incidence: Nausea” value [1, 6] was 32 (5.1) n (%). For the same compound, the “TEAE incidence: Schizophrenia” value [1, 6] was 15 (2.4) n (%), the “TEAE incidence: Somnolence” value [1, 6] was 52 (8.3) n (%) and the “TEAE incidence: Weight increased” value [1, 6] was 34 (5.4) n (%). For the same compound, the “Patients with at least 1 TEAE” value [1, 6] was 433 (68.8) n (%), the “Primary Reason for Discontinuation: Abnormal Laboratory Value(s)” value ([1]; Titration/Stabilization Phase) was 19 (8) n (%) and the “Primary Reason for Discontinuation: Abnormal Test Procedure Result(s)” value ([1]; Titration/Stabilization Phase) was 5 (2) n (%). The “Primary Reason for Discontinuation: Adverse Event(s)” value ([1]; Titration/Stabilization Phase) was 80 (32) n (%), the “Primary Reason for Discontinuation: Death” value ([1]; Titration/Stabilization Phase) was 1 (<1) n (%) and the “mean change from baseline in weight” value [1, 7] was 0.5 kg. For the same compound, the “patients in whom akathisia was absent (Barnes Akathisia Scale)” value [1, 7] was 97%, the “patients with ≥7% increase in weight from baseline” value [1, 7] was 17% and the “QTcF prolongation in relation to dose/exposure” value ([1]; longer-term trial, higher exposures associated with more QT prolongation) was “dose-dependent”. The “adverse events during maintenance period” value ([1]; patients administered 16 mg/day or less) was “reduction in adverse events”, the “most common adverse events suspected to be related to iloperidone” value ([1]; stabilization phase) was “dizziness, somnolence and dry mouth” and the “patients with elevations in LDL” value ([1]; versus none on placebo) was 2.6%. For the same compound, the “patients with elevations in blood urea nitrogen (BUN)” value ([1]; versus none on placebo) was 4.5%, the “Avg Time to Relapse or Impending Relapse” value ([2]; 8 mg/d, n=18) was <30 days and the “Avg Time to Relapse or Impending Relapse” value ([2]; 12 mg/d, n=58) was >120 days. For the same compound, the “Avg Time to Relapse or Impending Relapse” value ([2]; 20 mg/d, n=14) was >120 days, the “Average Time to Relapse” value ([2]; Final (FAS)) was 140 days and the Relapse Rate ([2]; Final (FAS) (N = 151)) was 17.9%. For the same compound, the “Hazard Ratio (95% CI)” value ([2]; Final (FAS)) was 5.2, the “Hazard Ratio (95% CI)” value ([2]; Final (FAS), listed as Iloperidone) was 5.2 (3.2, 8.4) and the Relapse Rate ([2]; Interim Analysis Population (N = 97)) was 20.4%. For the same compound, the “Hazard Ratio (95% CI)” value ([2]; Interim Analysis Population, Cox regression) was 4.7, the “Hazard Ratio (95% CI)” value ([2]; Interim Analysis Population, Cox regression, listed as Iloperidone) was 4.7 (2.7, 8.3) and the “Average Time to Relapse” value ([2]; Interim Analysis Population, KM estimates) was 139 days. The “CGI-I outcome in the majority of patients” value ([2]; Relapse Prevention Phase) was “showed improvement”, the “adjusted mean CGI-I score” value ([2]; Relapse Prevention Phase, LOCF) was 3.3 and the “adjusted mean change from randomization baseline at endpoint in PANSS total score” value ([2]; Relapse Prevention Phase, LOCF) was 2.3 points. The “mean improvement on the PANSS total score” value ([2]; during Titration and Stabilization Phase, patients randomized in the IA (N=195)) was −19.5±10.1 points, the “time to relapse compared with placebo (FIG. 2)” value ([2]; interim analysis population, Kaplan-Meier) was “statistically significant longer time to relapse” and the “estimated relapse rate at the end of the double-blind relapse prevention phase (KM est.)” value ([2]; interim analysis, flexible dose 8-24 mg/day) was 20.4%.
